Data reported in patent publication US9669141B2, “Tissue-engineered pumps and valves and uses thereof” (President and Fellows of Harvard College, priority 2012, dated 2017).

Test system: Jellyfish swimming muscle
Assay: Excitation-contraction uncoupling of jellyfish swimming muscle during optical mapping
Assay type: in vivo, Aurelia aurita
Details: juvenile jellyfish, artificial seawater at room temperature
Protocol: PMDS-coated glass cover slips with cardiomyocyte monolayers of medusoid muscle architecture were assayed in a custom-made optical mapping system (FIGS. 7i-o) by adapting previously described protocols. Briefly, the cultures were incubated for 5 minutes in 8 μM RH-237 voltage-sensitive dye (Iex/Iem in DMSO=˜550/˜800 nm; Molecular Probes) in Tyrode's solution, then washed with Tyrode's solution. During recording, the tissue was placed in Tyrode's solution containing 10 μM excitation-contraction uncoupler blebbistatin, thereby minimizing motion artifacts. All solutions were maintained at 35-37° C. A platinum point electrode connected to a Grass S48 stimulator (Grass technologies, West Warwick, R.I. 02893, USA) was placed ˜1 mm above the culture surface (FIG. 7i) and used to apply point stimuli (2 Hz, 5-8 V, 10-ms duration). Imaging was performed using an inverted microscope (Zeiss Axiovert 200; Carl Zeiss MicroImaging, LLC Thornwood, N.Y. 10594, USA) equipped with a 40× Plan-Neofluar (1.3 NA) oil-immersion objective, a fluorescence light source (Hamamatsu L2422 100 Watt Mercury-Xenon lamp) and a filter cube appropriate for RH237 imaging (Zeiss EX BP530-585, DC FT600, EM LP615). Fluorescence shutter opening and closing was synchronized with the pacing stimulus. Membrane voltage signals were optically recorded at 5 Hz using a honeycomb of 124 independent optical fibers, each monitoring an approximately circular field of view of 25 μm in diameter (FIGS. 6j and 6k) and each connected to a discrete photodiode transimpedance amplifier. The outputs of the photodiode amplifiers were digitized by a bank of differential amplifiers and DAQ cards (National Instruments Corporation, Austin, Tex. 78759, USA). Digitized signals were processed using custom-made software implemented in MATLAB (MathWorks, Natick, Mass. 01760, USA) (FIG. 7l). Activation times, defined as the time point of maximum positive slope of the action potential, served to calculate isochronal maps of activation and velocity vector fields across the field of view monitored by the LED array (FIGS. 7m and 7o).
Optical mapping in jellyfish (FIG. 7a-7h) was performed as in medusoid coverslips except for the following differences. All procedures were carried out in artificial seawater at room temperature (KENT Marine Sea Salt, KENT Marine Sea, 5401 West Oakwood Park Drive, Franklin, Wis. 53132). […] Thus, to constrain movement, an additional cover slip was placed on top of the jellyfish using vacuum grease as a spacer. […] Subsequently, activation times, isochronal maps and velocity vector fields were calculated as above (FIGS. 7e-7h).

SMILES: Cc1ccc2c(c1)C(=O)C1(O)CCN(c3ccccc3)C1=N2 (stereo not shown) [blebbistatin]
- sensitivity of jellyfish swimming muscle to excitation-contraction uncoupling agents: insensitive

SMILES: CC(=O)C(C)=NO [2,3-butanedione monoxime (BDM), 2,3-butanedione monoxime]
- sensitivity of jellyfish swimming muscle to excitation-contraction uncoupling agents: insensitive

SMILES: C=C1[C@@H](C)[C@H]2[C@H](Cc3ccccc3)NC(=O)[C@]23[C@H](OC(C)=O)/C=C/[C@@](C)(O)C(=O)[C@@H](C)C/C=C/[C@H]3[C@@H]1O [cytochalasin D]
- sensitivity of jellyfish swimming muscle to excitation-contraction uncoupling agents: insensitive

SMILES: O=C1CN(/N=C/c2ccc(-c3ccc([N+](=O)[O-])cc3)o2)C(O)=N1 [dantrolene sodium]
- sensitivity of jellyfish swimming muscle to excitation-contraction uncoupling agents: insensitive
